Measurements as given in patent publication EP0472573B1, “HERBICIDE RESISTANT MAIZE” (ZENECA LIMITED, priority 1989, dated 1990).

System: M1 seed of maize inbred line UE95 (sensitive plants)
Assay: Pre-emergence screening of M1 seed
Type: in vivo, Zea mays
Method: M1 seed was sown, 100 seeds per tray, in WCB growing medium (low organic matter, 45% loam, 55% grit) and sprayed to 'run-off' using a track sprayer, with a solution of imazethapyr (PURSUIT) at a concentration calculated to be the equivalent of 250 g/ha of active ingredient . The seeds were covered with 0.5 inch of WCB and grown in the glasshouse at 25°C.
The chosen application rate was such that germination was close to 100%, but subsequently all susceptible plants were severely affected. However, after about two weeks, the initial effect of the herbicide became apparent: thin striped leaves and reduced height of only about 20% of the height of the control plants. […] Unsprayed UE95 plants were always grown in parallel with each screen as a control as it was already known that normal and M1 seedlings of UE95 are almost indistinguishable when germinated and grown to maturity without spraying.

How did the germination (250 g/ha of active ingredient, pre-emergence, glasshouse at 25°C) turn out when `CCc1cnc(C2=NC(=O)C(C)(C(C)C)N2)c(C(=O)O)c1` (stereo not drawn) [Imazethapyr, 5-ethyl-2-(5-iso-propyl-5-methyl-4-oxo-2-imidazolin-2-yl) nicotinic acid] was run?
Its germination is roughly 100%.

What about the “effect on sensitive plants” value (250 g/ha, after three to four weeks) of the same molecule?
The value was “almost all the sensitive plants were completely dead”.

And the reduced height (250 g/ha, susceptible plants, after about two weeks)?
The reduced height was “about 20 % of the height of the control plants”.
